# Source: PubChem BioAssay AID180 (DTP/NCI, 2004)
# Where “and” joins values, the source holds several entries; their conditions need not be identical. Equal entries are not always repeated.
# System: BDF1 mice, Adenocarcinoma 755 s.c., tumor weight T/C
# Assay: NCI In Vivo Anticancer Drug Screen. Data for tumor model Adenocarcinoma 755 (subcutaneous) in B6D2F1 (BDF1) mice
# Settings: endpoint: mean tumor weight, higher = larger tumour
# In short: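 In vivo antitumor screen on a transplantable tumor line. Result equals the measure in compound-treated animals divided by the same measure in vehicle controls.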
# [1] = dose: 50.0 mg/kg/injection, schedule: Q01DX011 (ip), vehicle: carboxymethylcellulose (CMC)
# [2] = dose: 100.0 mg/kg/injection, schedule: Q01DX011 (ip), vehicle: carboxymethylcellulose (CMC)
# [3] = dose: 125.0 mg/kg/injection, schedule: Q01DX011 (ip), vehicle: carboxymethylcellulose (CMC)
# [4] = dose: 200.0 mg/kg/injection, schedule: Q01DX011 (ip), vehicle: carboxymethylcellulose (CMC)
# [5] = dose: 250.0 mg/kg/injection, schedule: Q01DX011 (ip), vehicle: carboxymethylcellulose (CMC)
# [6] = dose: 50.0 mg/kg/injection, schedule: Q01DX011 (ip), vehicle: other
# [7] = dose: 100.0 mg/kg/injection, schedule: Q01DX011 (ip), vehicle: other
# [8] = dose: 200.0 mg/kg/injection, schedule: Q01DX011 (ip), vehicle: other
# [9] = dose: 125.0 mg/kg/injection, schedule: Q01DX011 (ip), vehicle: methylcellulose (MC)
# [10] = dose: 250.0 mg/kg/injection, schedule: Q01DX011 (ip), vehicle: methylcellulose (MC)
smiles,measurement,setting,value
Nc1nc(SCCc2ccccc2)c2[nH]cnc2n1,T/C,"dose: 31.25 mg/kg/injection, schedule: Q01DX011 (ip), vehicle: carboxymethylcellulose (CMC)",106 % of control
same,T/C,[1],97 % of control
same,T/C,"dose: 62.5 mg/kg/injection, schedule: Q01DX011 (ip), vehicle: carboxymethylcellulose (CMC)",52 % of control
same,T/C,[2],81 % of control
same,T/C,[3],19 % of control
same,T/C,[4],74 % of control
same,T/C,[5],6 % of control
same,T/C,"dose: 400.0 mg/kg/injection, schedule: Q01DX011 (ip), vehicle: carboxymethylcellulose (CMC)",75 % of control
same,T/C,"dose: 800.0 mg/kg/injection, schedule: Q01DX011 (ip), vehicle: carboxymethylcellulose (CMC)",22 % of control
CCCCOC(OCCCC)C(OCCCC)OCCCC,T/C,[6],105 % of control
same,T/C,[7],106 % of control
same,T/C,[8],63 % of control
CNC(C)=O,T/C,[3],79 % of control and 86 % of control
same,T/C,[5],104 % of control and 85 % of control
same,T/C,"dose: 1000.0 mg/kg/injection, schedule: Q01DX011 (ip), vehicle: carboxymethylcellulose (CMC)",60 % of control and 82 % of control
CCN(CC)c1ccc(/C=C/c2ccnc3ccccc23)cc1,T/C,"dose: 2.5 mg/kg/injection, schedule: Q01DX011 (ip), vehicle: other",86 % of control
same,T/C,"dose: 3.03 mg/kg/injection, schedule: Q01DX011 (ip), vehicle: carboxymethylcellulose (CMC)",77 % of control
same,T/C,"dose: 3.23 mg/kg/injection, schedule: Q01DX011 (ip), vehicle: other",84 % of control
same,T/C,"dose: 4.8 mg/kg/injection, schedule: Q01DX011 (ip), vehicle: carboxymethylcellulose (CMC)",74 % of control
same,T/C,"dose: 5.0 mg/kg/injection, schedule: Q01DX011 (ip), vehicle: other",91 % of control
same,T/C,"dose: 6.0 mg/kg/injection, schedule: Q01DX011 (ip), vehicle: carboxymethylcellulose (CMC)",69 % of control
same,T/C,"dose: 6.05 mg/kg/injection, schedule: Q01DX011 (ip), vehicle: carboxymethylcellulose (CMC)",119 % of control
same,T/C,"dose: 6.45 mg/kg/injection, schedule: Q01DX011 (ip), vehicle: other",115 % of control
same,T/C,"dose: 8.0 mg/kg/injection, schedule: Q01DX011 (ip), vehicle: carboxymethylcellulose (CMC)",55 % of control
same,T/C,"dose: 9.68 mg/kg/injection, schedule: Q01DX011 (ip), vehicle: carboxymethylcellulose (CMC)",64 % of control
same,T/C,"dose: 12.0 mg/kg/injection, schedule: Q01DX011 (ip), vehicle: carboxymethylcellulose (CMC)",46 % of control
same,T/C,"dose: 12.1 mg/kg/injection, schedule: Q01DX011 (ip), vehicle: carboxymethylcellulose (CMC)",31 % of control
same,T/C,"dose: 12.9 mg/kg/injection, schedule: Q01DX011 (ip), vehicle: other",55 % of control
same,T/C,"dose: 14.0 mg/kg/injection, schedule: Q01DX011 (ip), vehicle: carboxymethylcellulose (CMC)",70 % of control
same,T/C,"dose: 15.0 mg/kg/injection, schedule: Q01DX011 (ip), vehicle: other",25 % of control
same,T/C,"dose: 16.13 mg/kg/injection, schedule: Q01DX011 (ip), vehicle: carboxymethylcellulose (CMC)",52 % of control
CCCCNc1nc(SCc2ccc(Cl)cc2Cl)ncc1C,T/C,"dose: 15.0 mg/kg/injection, schedule: Q01DX011 (ip), vehicle: methylcellulose (MC)",78 % of control
same,T/C,"dose: 31.0 mg/kg/injection, schedule: Q01DX011 (ip), vehicle: methylcellulose (MC)",91 % of control
same,T/C,"dose: 62.0 mg/kg/injection, schedule: Q01DX011 (ip), vehicle: methylcellulose (MC)",84 % of control
same,T/C,[9],72 % of control
same,T/C,[10],60 % of control
NC(=O)c1cn(C2OC(CO)C(O)C2O)c2ncnc(N)c12 (configuration not stated),T/C,"dose: 0.12 mg/kg/injection, schedule: Q01DX011 (ip), vehicle: carboxymethylcellulose (CMC)",71 % of control
same,T/C,"dose: 0.25 mg/kg/injection, schedule: Q01DX011 (ip), vehicle: carboxymethylcellulose (CMC)",54 % of control
same,T/C,"dose: 0.5 mg/kg/injection, schedule: Q01DX011 (ip), vehicle: carboxymethylcellulose (CMC)",51 % of control
c1ccc2[nH]cnc2c1,T/C,"dose: 38.5 mg/kg/injection, schedule: Q01DX011 (ip), vehicle: carboxymethylcellulose (CMC)",74 % of control
same,T/C,"dose: 40.0 mg/kg/injection, schedule: Q01DX011 (ip), vehicle: carboxymethylcellulose (CMC)",93 % of control
same,T/C,"dose: 43.5 mg/kg/injection, schedule: Q01DX011 (ip), vehicle: carboxymethylcellulose (CMC)",116 % of control
same,T/C,"dose: 62.5 mg/kg/injection, schedule: Q01DX011 (ip), vehicle: methylcellulose (MC)",60 % of control
same,T/C,"dose: 77.0 mg/kg/injection, schedule: Q01DX011 (ip), vehicle: carboxymethylcellulose (CMC)",62 % of control
same,T/C,"dose: 80.0 mg/kg/injection, schedule: Q01DX011 (ip), vehicle: carboxymethylcellulose (CMC)",72 % of control
same,T/C,"dose: 87.0 mg/kg/injection, schedule: Q01DX011 (ip), vehicle: carboxymethylcellulose (CMC)",110 % of control
same,T/C,"dose: 123.2 mg/kg/injection, schedule: Q01DX011 (ip), vehicle: carboxymethylcellulose (CMC)",41 % of control and 57 % of control
same,T/C,[9],88 % of control
same,T/C,"dose: 160.0 mg/kg/injection, schedule: Q01DX011 (ip), vehicle: carboxymethylcellulose (CMC)",105 % of control
same,T/C,"dose: 174.0 mg/kg/injection, schedule: Q01DX011 (ip), vehicle: carboxymethylcellulose (CMC)",101 % of control
same,T/C,"dose: 205.33 mg/kg/injection, schedule: Q01DX011 (ip), vehicle: carboxymethylcellulose (CMC)",77 % of control and 82 % of control
same,T/C,[10],118 % of control
same,T/C,"dose: 320.0 mg/kg/injection, schedule: Q01DX011 (ip), vehicle: carboxymethylcellulose (CMC)",123 % of control
same,T/C,"dose: 348.0 mg/kg/injection, schedule: Q01DX011 (ip), vehicle: carboxymethylcellulose (CMC)",76 % of control
CC(O)CNc1ncnc2c1cnn2C (configuration not stated),T/C,"dose: 12.5 mg/kg/injection, schedule: Q01DX011 (ip), vehicle: saline",94 % of control
same,T/C,"dose: 25.0 mg/kg/injection, schedule: Q01DX011 (ip), vehicle: saline",30 % of control
same,T/C,"dose: 50.0 mg/kg/injection, schedule: Q01DX011 (ip), vehicle: saline",10 % of control
CCC(=O)O[C@H]1CC[C@H]2[C@@H]3CC[C@H]4CC(=O)[C@H](C)C[C@]4(C)[C@H]3CC[C@]12C,T/C,"dose: 44.13 mg/kg/injection, schedule: Q01DX011 (sc), vehicle: steriod suspending solution",109 % of control and 115 % of control
same,T/C,"dose: 88.25 mg/kg/injection, schedule: Q01DX011 (sc), vehicle: steriod suspending solution",156 % of control
same,T/C,"dose: 125.0 mg/kg/injection, schedule: Q01DX011 (sc), vehicle: steriod suspending solution",101 % of control
same,T/C,"dose: 353.0 mg/kg/injection, schedule: Q01DX011 (sc), vehicle: steriod suspending solution",154 % of control
same,T/C,"dose: 500.0 mg/kg/injection, schedule: Q01DX011 (sc), vehicle: steriod suspending solution",176 % of control
same,T/C,"dose: 1000.0 mg/kg/injection, schedule: Q01DX011 (sc), vehicle: steriod suspending solution",124 % of control
CC(=O)Nc1c(Cl)cc2c(c1Cl)Cc1cc([N+](=O)[O-])ccc1-2,T/C,"dose: 0.8 mg/kg/injection, schedule: Q01DX011 (ip), vehicle: carboxymethylcellulose (CMC)",32 % of control
same,T/C,"dose: 1.6 mg/kg/injection, schedule: Q01DX011 (ip), vehicle: carboxymethylcellulose (CMC)",47 % of control
same,T/C,"dose: 3.0 mg/kg/injection, schedule: Q01DX011 (ip), vehicle: other",61 % of control
same,T/C,"dose: 3.12 mg/kg/injection, schedule: Q01DX011 (ip), vehicle: carboxymethylcellulose (CMC)",25 % of control
same,T/C,"dose: 6.0 mg/kg/injection, schedule: Q01DX011 (ip), vehicle: other",87 % of control
same,T/C,"dose: 6.25 mg/kg/injection, schedule: Q01DX011 (ip), vehicle: carboxymethylcellulose (CMC)",31 % of control and 33 % of control
same,T/C,"dose: 6.25 mg/kg/injection, schedule: Q01DX011 (ip), vehicle: other",59 % of control
same,T/C,"dose: 12.5 mg/kg/injection, schedule: Q01DX011 (ip), vehicle: carboxymethylcellulose (CMC)",15 % of control
same,T/C,"dose: 12.5 mg/kg/injection, schedule: Q01DX011 (ip), vehicle: other",22 % of control and 35 % of control
same,T/C,"dose: 25.0 mg/kg/injection, schedule: Q01DX011 (ip), vehicle: carboxymethylcellulose (CMC)",9 % of control
same,T/C,"dose: 25.0 mg/kg/injection, schedule: Q01DX011 (ip), vehicle: other",24 % of control and 45 % of control
same,T/C,[1],9 % of control
same,T/C,[6],31 % of control and 35 % of control
same,T/C,[2],8 % of control
same,T/C,[7],30 % of control
same,T/C,[4],6 % of control and 25 % of control
same,T/C,[8],26 % of control
same,T/C,"dose: 300.0 mg/kg/injection, schedule: Q01DX011 (ip), vehicle: carboxymethylcellulose (CMC)",6 % of control
same,T/C,"dose: 400.0 mg/kg/injection, schedule: Q01DX011 (ip), vehicle: other",20 % of control
